In general, IC50 refers to the concentration at which inhibition is half-maximal. Low readings indicate greater potency in that assay, high ones weaker potency in that assay.

The experiment concerns the target focal adhesion kinase (FAK) (Homo sapiens, UniProt Q05397). Put plainly: FAK kinase inhibition assay. The experiment is classed as biochemical.

focal adhesion kinase (FAK), sequence (Q05397 2-1052): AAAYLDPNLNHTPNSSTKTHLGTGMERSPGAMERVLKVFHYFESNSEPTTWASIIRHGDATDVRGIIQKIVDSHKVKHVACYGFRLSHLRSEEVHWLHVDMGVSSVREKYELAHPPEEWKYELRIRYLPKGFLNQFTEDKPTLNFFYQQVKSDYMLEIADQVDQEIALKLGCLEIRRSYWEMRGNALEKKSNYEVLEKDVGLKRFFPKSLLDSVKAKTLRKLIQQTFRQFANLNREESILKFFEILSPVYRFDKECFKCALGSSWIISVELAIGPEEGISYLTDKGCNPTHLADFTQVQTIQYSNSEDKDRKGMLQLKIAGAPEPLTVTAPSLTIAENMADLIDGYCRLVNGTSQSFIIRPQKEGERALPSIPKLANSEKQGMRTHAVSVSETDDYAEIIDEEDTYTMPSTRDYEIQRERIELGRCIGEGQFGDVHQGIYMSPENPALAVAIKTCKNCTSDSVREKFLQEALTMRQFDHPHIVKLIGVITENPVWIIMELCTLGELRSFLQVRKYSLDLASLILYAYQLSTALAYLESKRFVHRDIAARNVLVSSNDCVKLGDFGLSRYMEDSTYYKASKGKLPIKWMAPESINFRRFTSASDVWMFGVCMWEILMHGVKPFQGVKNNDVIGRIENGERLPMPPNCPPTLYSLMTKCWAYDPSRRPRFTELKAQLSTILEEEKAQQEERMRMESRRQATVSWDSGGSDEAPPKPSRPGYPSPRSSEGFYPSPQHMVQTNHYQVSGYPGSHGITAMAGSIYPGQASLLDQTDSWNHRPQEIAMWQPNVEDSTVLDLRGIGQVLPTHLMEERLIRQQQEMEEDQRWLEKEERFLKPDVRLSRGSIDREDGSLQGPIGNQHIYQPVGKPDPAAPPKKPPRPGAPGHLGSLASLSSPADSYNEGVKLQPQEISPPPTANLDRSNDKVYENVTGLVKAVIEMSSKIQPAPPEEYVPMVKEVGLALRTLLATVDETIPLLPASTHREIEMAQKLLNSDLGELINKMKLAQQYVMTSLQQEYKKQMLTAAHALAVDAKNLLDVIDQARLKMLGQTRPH

In turn, `CONC(=O)c1ccccc1Nc1cc(Nc2cc(C)nn2C(C)C)ncc1Cl` [GSK2256098] gave an IC50 of 22.1 nM.
